Data taken from publication PMC12603041, “A neuroprotective tetrapeptide for treatment of acute traumatic brain injury” (EMBO Molecular Medicine, 2025).
Peptide text beside a SMILES is read from it.

Columns and labels:
Safety study in CCI mice = type: in vivo, mouse; conditions: for ALP / ALT / BUN / GGT / TBIL: CCI mice, blood after two weeks, n = 5; for ALP / ALT / BUN: mean ± SD
Procedure: Male C57BL/6 mice (n = 5 per group) with CCI injury were intravenously administered daily with control PBS or with various concentrations (1, 5, and 25 mg/kg) of the CAQK peptide. After 2 weeks, blood was collected from the mice and analyzed for liver and kidney toxicity. Tests performed for liver function (ALP: alkaline phosphatase, ALT: alanine aminotransferase, TBIL total bilirubin, GGT G-glutamyl transferase) and kidney function (BUN: blood urea nitrogen). Results expressed as mean ± SD. For a more detailed safety analysis, Sprague-Dawley rats were randomized to four dose groups. CAQK or vehicle (0.9% sodium chloride injection, USP) was administered once daily by i.v. administration to male and female rats at 0 (vehicle),10, 100, or 300 mg/kg/day (Groups 1–4, respectively) for 7 consecutive days. All animals were euthanized and necropsied after blood sample collection for clinical pathology on Day 8. All animals in Groups 1–4 were evaluated for clinical observations, body weights, and clinical pathology (hematology, coagulation, and serum chemistry), gross necropsy observations and major organ weights. […]
Appendix Table S2. Safety study in CCI mice. C57BL/6 mice (n = 5 per group) with CCI injury were intravenously injecteddaily for 7 days with vehicle control (PBS)or with the shown concentration of the CAQK peptide. After two weeks, blood was collected from the mice and analyzed for liver and kidney toxicity. Tests performed for liver function:ALP:
Alkaline Phosphatase, ALT: Alanine Aminotransferase, TBIL-total bilirubin, GGT -G-glutamyl transferase,and for kidney function:BUN: Blood urea nitrogen. Results

in vivo = conditions: mouse, iv, 12.5 mg/kg
Procedure: (§1) Figure 2 Pharmacokinetic analysis of CAQK. (A) Mice with CCI received i.v. bolus of CAQK (12.5 mg/kg) at 4 h after CCI. Blood was collected at different time points, and plasma was analyzed by LC/MS. Plasma concentration of CAQK was plotted using WinNonlin. N = 3 per time point. (B) Plasma clearance data were used to calculate pharmacokinetic parameters using a two-compartment analysis. (C) CAQK accumulation was analyzed in brain homogenates from injured (ipsilateral) and uninjured (contralateral) sides at different time points after i.v. injection and plotted as ng/g of brain tissue. N = 3/group. Data were expressed as mean ± SEM. Differences were analyzed using an unpaired t-test. […] vs contralateral side. […] It is not in the table of panel B, so it is not attached as a condition.
(§2) CAQK (12.5 mg/kg) was injected i.v. into mice with CCI at 4 h post-injury. Blood was collected from these mice at different time points, and plasma was processed and analyzed by LC/MS after a reduction and alkylation step under reducing conditions to capture total peptide (free peptide and peptide bound to plasma proteins by disulfide formation). Plasma concentration was plotted using WinNonlin. Similarly, for analysis in rats, CAQK (10 mg/kg) was injected i.v. into healthy Sprague-Dawley rats once daily for 7 days. Blood was collected at different time points at Day 1 and Day, 7 and plasma was analyzed by LC/MS to analyze CAQK. Plasma concentration of CAQK was plotted. N = 3 per time point.

[1] = CAQK plasma clearance in rats; type: in vivo, rat
Procedure: Figure EV2 CAQK plasma clearance in rats. (A) CAQK was injected daily i.v. in healthy adult Sprague-Dawley rats at a 10 mg/kg dose for 7 days. Blood was collected at different time points at Day 1 and Day 7, and plasma was analyzed by LC/MS to analyze CAQK. Plasma concentration of CAQK was plotted. N = 3 per time point. Plasma clearance data were also used to calculate pharmacokinetic parameters in (B). (C) FP measurement of CAQK binding to BSA. FAM-CAQK (20 nM) was incubated with BSA at the indicated concentration for 1 h at 37 °C. n = 3.
as §2

injured brain [2] = conditions: mouse, in vivo, iv; cited from earlier work
Excerpt: We have previously identified a tetrapeptide, CAQK, that accumulates in the ECM of the injured brain. […] We reasoned that knowing the target molecule CAQK binds to would likely give hints of the possible nature of such an activity. Previous work has shown that CAQK binds to a chondroitin sulfate proteoglycan (CSPG)-rich protein complex, the expression of which is elevated following an inju ... || Given the CAQK accumulation in the injured brain and binding to TnC in injured ECM, and the functional activities observed with other homing peptides, it seemed possible that CAQK might affect the course of TBI. To prepare for functional testing of CAQK, we performed CAQK half-life analyses using a mouse model of CCI. […] Initial clearance from the circulation through glomerular filtration is expected for a small peptide, explaining the short half-life. A small per ...

injured brain [3] = conditions: mouse, in vivo
Procedure: as §1
as §2, with “Similarly, for analysis in rats, CAQK (10 mg/kg) was injected i.v. into healthy Sprague-Dawley rats once daily for 7 days.” left out, “Plasma concentration of CAQK was plotted. N = 3 per time point.” left out

C[C@H](NC(=O)[C@@H](N)CS)C(=O)N[C@@H](CCC(N)=O)C(=O)N[C@@H](CCCCN)C(N)=O [CAQK, cysteine-alanine-glutamine-lysine] (H-CAQK-NH2)
ALP (Safety study in CCI mice; 1 mg/kg i.v. daily for 7 days): 45 ± 5.3 U/L
ALT (Safety study in CCI mice; 1 mg/kg i.v. daily for 7 days): 24.3 ± 6.8 U/L
BUN (Safety study in CCI mice; 1 mg/kg i.v. daily for 7 days): 21.3 ± 3.5 mg /bL
GGT (Safety study in CCI mice; 1 mg/kg i.v. daily for 7 days): < 5 U/L
TBIL (Safety study in CCI mice; 1 mg/kg i.v. daily for 7 days): 0.3 mg/dL
ALP (Safety study in CCI mice; 5 mg/kg i.v. daily for 7 days): 47.4 ± 8.2 U/L
ALT (Safety study in CCI mice; 5 mg/kg i.v. daily for 7 days): 23.4 ± 4.9 U/L
BUN (Safety study in CCI mice; 5 mg/kg i.v. daily for 7 days): 22.2 ± 1 mg /bL
GGT (Safety study in CCI mice; 5 mg/kg i.v. daily for 7 days): < 5 U/L
TBIL (Safety study in CCI mice; 5 mg/kg i.v. daily for 7 days): 0.3 mg/dL
ALP (Safety study in CCI mice; 25 mg/kg i.v. daily for 7 days): 42.6 ± 7.6 U/L
ALT (Safety study in CCI mice; 25 mg/kg i.v. daily for 7 days): 34.8 ± 13.2 U/L
BUN (Safety study in CCI mice; 25 mg/kg i.v. daily for 7 days): 24.8 ± 2.05 mg /bL
GGT (Safety study in CCI mice; 25 mg/kg i.v. daily for 7 days): < 5 U/L
TBIL (Safety study in CCI mice; 25 mg/kg i.v. daily for 7 days): 0.3 mg/dL
effects on body weight, organ weight, or clinical pathology (Safety study in CCI mice; TBI mice, daily i.v. doses (1, 5, and 25 mg/kg)): no effects
AUC(0-inf) (in vivo): 27.8 µg·h/mL
AUC(0-t) (in vivo): 27.4 µg·h/mL
C0 (in vivo): 45.1 µg/mL
CL2 (in vivo): 0.78 L/h/kg
MRT (in vivo): 4.2 h
T1/2, initial rapid clearance from the blood (in vivo): 9 min
T1/2, second elimination phase (in vivo): 4.1 h
V1 (in vivo): 0.28 L/kg
V2 (in vivo): 1.6 L/kg
Vd (in vivo): 1.9 L/kg
clearance (in vivo): 0.45 L/h/kg
half-life (in vivo): 4.2 h
k10 (in vivo): 1.6 h⁻¹
k12 (in vivo): 2.8 h⁻¹
k21 (in vivo): 0.48 h⁻¹
t1/2Alpha (in vivo): 9 min
half-life after single injection versus daily injections over a week ([1]; healthy Sprague-Dawley rats, 10 mg/kg i.v. daily for 7 days, Day 1 and Day 7): remained the same
pK profile after 7-day repeat dosing ([1]; repeat IV dosing, 7 days): unaltered
accumulation in other organs (injured brain [2]): No other organs showed peptide accumulation except the kidneys
estimated half-life in the brain (injured brain [3]): about 5.8 h
accumulation in the injured side of the brain versus the contralateral side (injured brain [3]; iv): over eightfold
